Read-outs that look alike come from different tables or passages of the source.
Experiments:
[1] = tested on: Bakterien; assay: Durability: bacteria test (ISO 22196) after immersion in Incidin Plus (10% in water) or isopropanol (70% in water); type: cell-based; settings: 4 h, Rezeptur 2 (Borsäure) on Melamin, 2 mM
Text: (§1) Die Bestimmung der antimikrobiellen Aktivität erfolgte nach einer modifizierten Version der ISO 22196:2011-08 ("Messung von antibakterieller Aktivität auf Kunststoff- und anderen porenfreien Oberflächen", Ausgabedatum: 2011-08).
(§2) Bei der Testdurchführung wurde ein dünner Flüssigkeitsfilm, in dem die Bakterien enthalten sind (1,25 x 10^4 /cm2), direkt auf die Probekörper (2,5 cm x 2,5 cm) aufgebracht. Direkt nach Beimpfung wurden von der Nullprobe die Bakterien von den Probekörperoberflächen mittels Ultraschall und Vortexen abgelöst und die Keimzahl (KBE (engl. CFU), Kolonie-bildende Einheit) bestimmt (t0-Wert). Ein weiterer Satz Nullproben und antimikrobiell ausgestatteter Proben wurden mit Bakterien im Flüssigkeitsfilm bei Raumtemperatur inkubiert. Nach 4 h wurden überlebende Bakterien von den Probekörperoberflächen mittels Ultraschall und Vortexen abgelöst und die Keimzahl bestimmt (t4-Wert).
(§3) Im Unterschied zu der in der ISO 22196:2011-08 beschriebenen Methode wurde das Inokulum nicht mit einer Folie abgedeckt und die Inkubationszeit von 24 auf 4 Stunden reduziert. Weiterhin wurden die Platten der Proben 3 und 4 mit Licht mit einer Intensität von 300 µW/cm2 belichtet.
Um die Haltbarkeit der Beschichtung bzw. das Auswaschen des Farbstoffs gegen gängige Reinigungs- und Desinfektionsmitteln, wurden damit Immersionstests in Incidin Plus (Ecolab GmbH, 10% in Wasser, Farbstoff S-25a) und Isopropanol (70% in Wasser) durchgeführt.
Der Bakterientest wurde in Anlehnung an ISO 22196 nach oben beschriebener Methode durchgeführt. Die Ergebnisse sind in den Tabellen 59 und 60 zusammengefasst. Tabelle 59: Mikrobiologische Wirksamkeit (Iog10 Reduktion) nach X h Immersion in Incidin Plus (10% in Wasser).

[2] = Immersion test: binding / wash-out of photocatalysts from SolGel coatings (1 h deionised water, UV-VIS signal loss); type: physicochemical; settings: Rezeptur 5 coating on glass, dye 10 bis 40 mM; 1 h deionised water pH 6 ± 1, 22 ± 3 °C; relative UV-VIS signal loss at absorption maximum
Protocol: Für alle Untersuchungen wurden nach Beispiel 8 beschichtete Glasträger verwendet.
Um das Auswaschen der verschiedenen Farbstoffe in den Sol-Gel-Beschichtungen zu beurteilen wurde ein Immersionstest in vollentsalztem Wasser mit einem pH-Wert von (6 ± 1) und einer Wassertemperatur von (22 ± 3) °C für eine Stunde durchgeführt. Dazu wurden zunächst Schichten (Rezeptur 5, Beispiel 4, aufgefüllt mit 3,0 mL 2-Propanol; sh. Tabelle 3) mit erhöhter Farbstoffkonzentration (10 bis 40 mM; um die notwendige Auflösung bei der dünnen Schicht zu erreichen) auf Glas-Objektträgern erzeugt. Diese wurden nach dem Ablüften bei Raumtemperatur (30 min) eine Stunde bei 60°C nachgehärtet. Anschließend wurden die Schichten direkt im UV-VIS-Spektrometer vermessen. Die Ausgangswerte (Absorptionsmaximum des jeweiligen Farbstoffs) sollten dabei zwischen 0,05 A.U. und 1,50 A.U. liegen.
Nach einer Stunde in VE-Wasser wurden die Prüfkörper getrocknet und erneut gemessen. Aus den beiden Messungen wurde ein relativer Signalverlust in Prozent bei dem farbstoffspezifischen Absorptionsmaximum bestimmt.
Dieser Immersionstest diente dazu, das Auswaschverhalten verschiedener Farbstoffe aus Beschichtungssystemen zu beurteilen. Weiter soll er dabei helfen, verschiedene Farbstoffklassen oder verschiedene Farbstoffderivate einer Farbstoffklasse bezüglich dieser Charakteristik miteinander zu vergleichen. Die Ergebnisse sind in den folgenden Tabellen sortiert nach Stoffgruppen zusammengefasst: […]

[3] = tested on: verschiedene Bakterienstämme; assay: Bacteria test following modified ISO 22196, photodynamic effect of a SolGel coating on different bacterial strains; type: cell-based; settings: Rezeptur 5 coating on Melamin, 2 mM, 4 h
Text: as §1, §2, §3
Die Ergebnisse sind Tabelle 53 dargestellt. Tabelle 53: Photodynamische Wirkung einer SolGel Beschichtung gegen verschiedene Bakterienstämme

[4] = tested on: S.aureus; type: cell-based; settings: for Log10 Reduktion Dunkelkontrolle 1 mM / Log10 Reduktion Dunkelkontrolle 2 mM: dark; for Log10 Reduktion Wirksamkeit 1 mM / Log10 Reduktion Wirksamkeit 2 mM: light
[5] = tested on: I. monocytoqenes; assay: Bacteria test following modified ISO 22196, photodynamic effect of different photocatalysts in the SolGel coating on I. monocytoqenes; type: cell-based; settings: Rezeptur 4 nach Beispiel 5 on Melamin; 4 h, dark
Text: as §1, §2, §3
(§4) Der Bakterientest wurde in Anlehnung an ISO 22196 nach oben beschriebener Methode durchgeführt. Die Ergebnisse sind Tabelle 57a bis 57b dargestellt. Tabelle 57a: Photodynamische Wirkung verschiedener Katalysatoren in der SolGel Beschichtung gegen S.aureus

[6] = tested on: Bakterien; assay: Room light tests (Raumlichtversuche): antimicrobial efficacy at 10 µW/cm^2 for 24 h; type: cell-based; settings: Farbstoff 5 mM, coating Rezeptur 3, Beispiel 2a (2,5 eq aqueous boric acid, 50 mM)
Protocol: Um die antimikrobielle Wirksamkeit in einem realen Szenario abzuschätzen, wurden sogenannte Raumlichtversuche durchgeführt. Dazu wurden die mit Bakterien versetzten Probenträger mit einer, für Innenräume repräsentativen Lichtintensität von 10 µW/cm^2 für einen Zeitraum von 24 h bestrahlt.
Herstellung der Beschichtung erfolgte gemäß Beispiel 2a (2,5 eq wässrige Borsäure, 50 mM), mit Rezeptur 3. Die Ergebnisse sind in der Tabelle 63 zusammengefasst. Tabelle 63: Antimikrobielle Wirksamkeit bei Raumlichtbedingungen

[7] = tested on: Bakterien; assay: Photostability: bacteria test (ISO 22196) after simulated long-term illumination (18 mW/cm^2, 405 nm); type: cell-based; settings: 4 h, Rezeptur 2 (Borsäure) on Melamin, 2 mM
Text: as §1, §2, §3
Zur Bewertung der Photostabilität des Farbstoffs S-25a (2 mM) in der Beschichtung wurden beschichtete Flächen mit 18 mW/cm^2 (405 nm, ca. 200 Fache Raumlichtintensität, Zeitrafferversuch) bestrahlt. So wurde eine Echtzeit-Photostabilität von 2 Jahren simuliert.
Der Bakterientest wurde in Anlehnung an ISO 22196 nach oben beschriebener Methode durchgeführt. Die Ergebnisse sind in der Tabelle 61 zusammengefasst. Tabelle 61: Mikrobiologische Wirksamkeit nach simulierter Photobelastung für 1, 2, 3, 6, 12 und 24 Monate

[8] = tested on: S. enterica; assay: Bacteria test following modified ISO 22196, photodynamic effect of different photocatalysts in the SolGel coating on S. enterica; type: cell-based; settings: Rezeptur 4 nach Beispiel 5 on Melamin, 4 h
Text: as §1, §2, §3, §4

[9] = Rezeptur 2, Verdünnung mit IPA 1:2
[10] = Rezeptur 2, Verdünnung mit IPA 1:5
[11] = Rezeptur 2, Verdünnung mit IPA 1:8

Compound: CC(C)(O)c1cc[n+](CC2=Cc3cccc4cccc(c34)C2=O)cc1 [S-25a]
- log reduction at 2000 µM ([1]; Immersion in Incidin Plus (10% in Wasser) 0 h, read-out: Log10 Reduktion nach 0 h, Probe): 3.7
- log reduction at 2000 µM ([1]; Immersion in Incidin Plus (10% in Wasser) 1 h, dark, read-out: Log10 Reduktion nach 1 h, Dunkelkontrolle): 0.8
- log reduction at 2000 µM ([1]; Immersion in Incidin Plus (10% in Wasser) 1 h, read-out: Log10 Reduktion nach 1 h, Probe): 2.6
- log reduction at 2000 µM ([1]; Immersion in Incidin Plus (10% in Wasser) 2 h, read-out: Log10 Reduktion nach 2 h, Probe): 2.4
- log reduction at 2000 µM ([1]; Immersion in Incidin Plus (10% in Wasser) 3 h, read-out: Log10 Reduktion nach 3 h, Probe): 1.4
- Verlust durch Auswaschen [2]: 8%
- log reduction at 2000 µM ([3]; Acinetobacter baumannii, ATCC15308, A. baumanii ATCC 15308 (Gram negativ), 300 µW/cm2, read-out: Log10 Reduktion Probe): > 4
- log reduction at 2000 µM ([3]; Acinetobacter baumannii, ATCC15308, A. baumanii ATCC 15308 (Gram negativ), dark, read-out: Log10 Reduktion Dunkelkontrolle): 0.1
- log reduction at 2000 µM ([3]; Enterococcus faecium, E.faecium EDCC 5271 (Gram positiv), 300 µW/cm2, read-out: Log10 Reduktion Probe): > 4
- log reduction at 2000 µM ([3]; Enterococcus faecium, E.faecium EDCC 5271 (Gram positiv), dark, read-out: Log10 Reduktion Dunkelkontrolle): 0
- log reduction at 2000 µM ([3]; Staphylococcus aureus, ATCC6538, S.aureus ATCC 6538 (Gram positiv), 300 µW/cm2, read-out: Log10 Reduktion Probe): > 4
- log reduction at 2000 µM ([3]; Staphylococcus aureus, ATCC6538, S.aureus ATCC 6538 (Gram positiv), dark, read-out: Log10 Reduktion Dunkelkontrolle): 0.1
- Log10 Reduktion Dunkelkontrolle 1 mM [4, 9]: 0,1±0,4
- Log10 Reduktion Dunkelkontrolle 2 mM [4, 9]: 0,0±0,0
- Log10 Reduktion Wirksamkeit 1 mM [4, 9]: 3,0±0,2
- Log10 Reduktion Wirksamkeit 2 mM [4, 9]: 3,3±0,5
- Log10 Reduktion Dunkelkontrolle 1 mM [4, 10]: 0,0±0,2
- Log10 Reduktion Dunkelkontrolle 2 mM [4, 10]: 0,1±0,1
- Log10 Reduktion Wirksamkeit 1 mM [4, 10]: 2,0±0,2
- Log10 Reduktion Wirksamkeit 2 mM [4, 10]: 2,8±0,2
- Log10 Reduktion Dunkelkontrolle 1 mM [4, 11]: 0,0±0,2
- Log10 Reduktion Dunkelkontrolle 2 mM [4, 11]: 0,0±0,1
- Log10 Reduktion Wirksamkeit 1 mM [4, 11]: 1,5±0,1
- Log10 Reduktion Wirksamkeit 2 mM [4, 11]: 2,7±0,6
- I. monocytoqenes Log10 Reduktion Dunkelkontrolle [5]: 0,0±0,1
- log reduction at 5000 µM ([6]; 24 h, dark control, read-out: Log10 Reduktion Dunkelkontrolle): 1.1
- log reduction at 5000 µM ([6]; illuminated 10 µW/cm^2 for 24 h, read-out: Log10 Reduktion 24 h): 2.6
- log reduction at 2000 µM ([7]; 2 Monate simulated, dark, read-out: Log10 Reduktion nach x Monaten simulierter Belastung: 2, Dunkelkontrolle): 0.2
- log reduction at 2000 µM ([7]; 3 Monate simulated, dark, read-out: Log10 Reduktion nach x Monaten simulierter Belastung: 3, Dunkelkontrolle): 0.2
- log reduction at 2000 µM ([7]; 24 Monate simulated, dark, read-out: Log10 Reduktion nach x Monaten simulierter Belastung: 24, Dunkelkontrolle): 0.2
- log reduction at 2000 µM ([7]; pre-illumination 18 mW/cm^2, 405 nm, 0 Monate, read-out: Log10 Reduktion nach x Monaten simulierter Belastung: Start (0), Probe): 4.7
- log reduction at 2000 µM ([7]; pre-illumination 18 mW/cm^2, 405 nm, 1 Monat simulated, read-out: Log10 Reduktion nach x Monaten simulierter Belastung: 1, Probe): 4.6
- log reduction at 2000 µM ([7]; pre-illumination 18 mW/cm^2, 405 nm, 2 Monate simulated, read-out: Log10 Reduktion nach x Monaten simulierter Belastung: 2, Probe): 4.3
- log reduction at 2000 µM ([7]; pre-illumination 18 mW/cm^2, 405 nm, 3 Monate simulated, read-out: Log10 Reduktion nach x Monaten simulierter Belastung: 3, Probe): 4.2
- log reduction at 2000 µM ([7]; pre-illumination 18 mW/cm^2, 405 nm, 6 Monate simulated, read-out: Log10 Reduktion nach x Monaten simulierter Belastung: 6, Probe): 4.3
- log reduction at 2000 µM ([7]; pre-illumination 18 mW/cm^2, 405 nm, 12 Monate simulated, read-out: Log10 Reduktion nach x Monaten simulierter Belastung: 12, Probe): 4.3
- log reduction at 2000 µM ([7]; pre-illumination 18 mW/cm^2, 405 nm, 24 Monate simulated, read-out: Log10 Reduktion nach x Monaten simulierter Belastung: 24, Probe): 4.3
- S. enterica Log10 Reduktion Probe ([8]; 300 µW/cm2): 2,5±0,4
- S. enterica Log10 Reduktion Dunkelkontrolle ([8]; dark): 0,0±0,1

Source: patent EP4458916A1, “PHOTOCATALYTICALLY ACTIVE COATING COMPOSITION, METHOD FOR THE PRODUCTION THEREOF AND USE THEREOF” (priority 2023, dated 2024)
